Tested on: Canine glioma
Assay: in vivo tumor inhibition: canine model
Parameters: species or system dog
Method: Canine glioma was implanted surgically into the brains of four outbred dogs (2×10^6 cells). This procedure normally causes death by tumor growth in 14-28 days.
[…] F) by I.P. injection in phosphate buffered saline.
Tumor progress was assessed at weekly intervals by NMR, employing GdDPTA as imaging agent. This method illuminates vascularization at the surface of the tumor, and provides images which correlate well with neuropathological observations.

Row | SMILES | tumor status, later studies (10 μg/kg I.P. (data not shown)) | small tumor appeared on Day (pre-treated, 10 μg/kg I.P. M, W, F after implantation (FIG. 8)) [days] | tumor visible at Day (treatment begun on Day 11 (FIG. 9)) [days]
1 | CC(C)c1nc(-c2ccccc2)n(-c2ccc(F)cc2)c1/C=C/[C@H](O)C[C@H](O)CC(=O)O [TF-002] | free of tumor | 12 | 
2 | CC(C)c1c(/C=C/C(O)CC(O)CC(=O)O)n(-c2ccc(F)cc2)c2ccccc12 (stereo not drawn) [TF-004] |  |  | 10
